Where “and” joins values, the source holds several entries; their conditions need not be identical. Equal values may be shown once. Read-outs that look alike come from different tables or passages of the source.
Experiments:
cellulase = conditions: substrate 0.25 mM in inducing Dubos medium with carboxymethyl-cellulose; 30° C, 24 h; excitation/emission 388/455 nm
Procedure: (§1) Different control strains are cultivated in an LB medium at 30° C. with stirring (240 rpm) for 18 h. For each strain, the culture is centrifuged (2,500 g, 5 min) and the pellet of cells is washed twice in 5 mL of LB medium (centrifugation at 2,500 g, 5 min). This pellet is used for inoculating at OD=0.005 a culture in an inducing medium (Dubos medium with 2.5 g/L of carboxymethyl-cellulose) containing the fluorogenic substrate (8 or 10) at 0.25 mM. The culture is incubated at 30° C. without stirring for 24 h. Culture supernatant samples are taken at different incubation times in order to be able to follow the occurrence of cellulase or β-glucosidase activities in the culture medium. The occurrence of these activities is followed by measurement of the fluorescence on the culture supernatants in microplates with excitation and emission wavelengths of 388 nm and 455 nm.

Escherichia coli BL21 = conditions: inactive strain
Procedure: (§2) Two control stains are used: one having a cellulase activity (Bacillus subtilis NCIM 2724) the other one not having any activity (Escherichia coli BL21). Both strains are cultivated in an LB medium at 30° C. with stirring (240 rpm) for 18 h. For each strain, the culture is centrifuged (2 500 g, 5 min) and the pellet of cells is washed twice in 5 mL of an LB medium (centrifugation at 2 500 g, 5 min). This pellet is used for inoculation at OD=0.005 a culture in an inducing medium (Dubos medium with 2.5 g/L of carboxymethyl-cellulose) containing the fluorogenic substrate 8 and 2.5 μM (B. subtilis NCIM 2724) or 10 μM (E. coli BL21) of sulforhodamine. Both of these cell suspensions are used with perfluorinated oil in order to produce an emulsion consisting of two populations of droplets each containing one of the described suspensions. The blue and red fluorescences of the droplets are measured individually, on a sample of the emulsion, during production (t=0 h) and reinjection after having incubated the emulsion for 24 h at 30° C.
(§3) The graphs a and b, shown in FIG. 5, are two dimensional histograms of the red (in abscissas, RFU) and blue (in ordinates, RFU) fluorescence intensities measured on the emulsion during its production (a) and its reinjection after incubation fro 24 h at 30° C. (b). The population density is illustrated by a color code varying from pink (1 droplet) to red (>1,000 droplets) according to a logarithmic scale.

[1] = tested on: Bacillus subtilis NCIM 2724
Procedure: as §2, §3

β-glucosidase [2] = conditions: substrate 0.25 mM in inducing Dubos medium with carboxymethyl-cellulose; 30° C, 24 h; excitation/emission 388/455 nm
Procedure: as §1

β-glucosidase [3] = conditions: substrate 0.25 mM, phosphate buffer pH 7.5, 30° C, 120 minutes
Procedure: (§4) The enzymatic kinetics are achieved in a microplate on soluble enzymatic extracts (A, B, C and D) rich in activities of the cellulase and xylanase type. These extracts are diluted 10 times (substrate 18, FIG. 1) or 100 times (substrate 10, 12 and 14, FIG. 2) in a 50 mM phosphate buffer, NaCl 150 mM, pH=7.5. A volume of 20 μL of diluted enzymatic extract is added to 20 μL of fluorogenic substrate (10, 12, 14 or 18) at 0.25 mM in a 50 mM phosphate buffer, NaCl 150 mM, pH=7.5. The kinetics are achieved at 30° C. The enzymatic hydrolysis of the different fluorogenic substrate is followed for 120 minutes by measuring the fluorescence with excitation and emission wavelengths of: 339 nm and 452 nm for the substrates 10, 12 and 14; 375 nm and 510 nm for the substrate 18.

β-xylosidase = conditions: extracts diluted 100 times; substrate 0.25 mM; phosphate buffer pH 7.5; 30° C; 120 minutes; excitation/emission 339/452 nm
Procedure: as §4

xylanase = conditions: extracts diluted 100 times; substrate 0.25 mM; phosphate buffer pH 7.5; 30° C; 120 minutes; excitation/emission 339/452 nm
Procedure: as §4

## O=c1cc(CS(=O)(=O)[O-])c2cc(F)c(O[C@@H]3O[C@H](CO)[C@@H](O[C@@H]4O[C@H](CO)[C@@H](O)[C@H](O)[C@H]4O)[C@H](O)[C@H]3O)c(F)c2o1.[Na+] [substrate 8, sodium β-D-cellobioside 6,8-difluoro-7-hydroxycoumarin-4-methanesulfonate]
cellulase
  detection of enzymatic activity of the cellulase type on cultures of microorganisms: allow detection of the enzymatic activities
Escherichia coli BL21; after 24 h of incubation at 30° C
  change of blue fluorescence of the droplets: do not have any increase of their blue fluorescence
Escherichia coli BL21; reinjection (t = 24 h) after incubation at 30° C, 10 μM sulforhodamine, threshold 37.56 RFU blue fluorescence
  % of positive droplets: 0.26%
[1]; after 24 h of incubation at 30° C, active strain
  change of blue fluorescence of the droplets: blue fluorescence significantly increased
[1]; emulsion generated by a microfluidic system, 24 h at 30° C
  detection of an activity of the cellulase type on microorganisms within an emulsion: allows detection of an activity of the cellulase type
[1]; reinjection (t = 24 h) after incubation at 30° C, active strain, 2.5 μM sulforhodamine, threshold 37.56 RFU blue fluorescence
  % of positive droplets: 27% and 27.61%

## O=c1cc(CS(=O)(=O)[O-])c2cc(F)c(O[C@@H]3O[C@H](CO)[C@@H](O)[C@H](O)[C@H]3O)c(F)c2o1.[Na+] [substrate 10, sodium β-D-glucoside 6,8-difluoro-7-hydroxycoumarin-4-methanesulfonate]
β-glucosidase [2]
  detection of enzymatic activity of the β-glucosidase type on cultures of microorganisms: allow detection of the enzymatic activities
β-glucosidase [3]; extracts diluted 100 times, excitation/emission 339/452 nm
  detection of enzymatic activity of type β-glucosidase by fluorescence: allow detection of the enzymatic activities

## O=c1cc(CS(=O)(=O)[O-])c2cc(F)c(O[C@@H]3OC[C@@H](O)[C@H](O)[C@H]3O)c(F)c2o1.[Na+] [substrate 12, sodium β-D-xyloside 6,8-difluoro-7-hydroxycoumarin-4-methanesulfonate]
β-xylosidase
  detection of enzymatic activity of type β-xylosidase by fluorescence: allow detection of the enzymatic activities

## O=c1cc(CS(=O)(=O)[O-])c2cc(F)c(O[C@@H]3OC[C@@H](O[C@@H]4OC[C@@H](O)[C@H](O)[C@H]4O)[C@H](O)[C@H]3O)c(F)c2o1.[Na+] [substrate 14, sodium β-D-xylobioside 6,8-difluoro-7-hydroxycoumarin-4-methanesulfonate]
xylanase
  detection of enzymatic activity of xylanase type by fluorescence: allow detection of the enzymatic activities

## O=c1cc(CS(=O)(=O)[O-])c2c(cc(O[C@@H]3O[C@H](CO)[C@@H](O)[C@H](O)[C@H]3O)c3ccccc32)o1.[Na+] [substrate 18, sodium β-D-glucoside 5,6-benzo-7-hydroxycoumarin-4-methanesulfonate]
β-glucosidase [3]; extracts diluted 10 times, excitation/emission 375/510 nm
  detection of enzymatic activity of type β-glucosidase by fluorescence: allow detection of the enzymatic activities
